Data published in article PMC4417150, “Selective inhibition of miR-21 by phage display screened peptide” (Nucleic Acids Research, 2015).
Peptide text beside a SMILES is read from it.

tested on: MCF-7 cells; assay: Quantitative uptake of FAM-conjugated peptide (flow cytometry); assay type: in vitro ADME; conditions: FAM-conjugated peptides 1, 5, 10 µM; MCF-7, serum free media, 6 h, 37°C; FACS; duplicate
Description: Carboxyfluorescein (FAM)-conjugated peptide was added onto MCF-7 cells with ∼80% confluence in serum free media. Cells were then incubated at 37°C humidified incubator (5% CO2) for 6 h. Cells were washed twice with ice cold PBS containing 1mg/ml heparin, followed by one wash with trypan blue and two washes with ice cold PBS. Cells were trypsinised, followed by centrifugation at 700 g for 5 min at 4°C. Cell pellet was resuspended in ice cold PBS and FACS analysis was done in BD Accuri instrument. 10000 counts per sample was analyzed using BD Accuri C6 software.
As the peptide contains three proline residues, we reasoned that the peptide may have cell penetrating properties. To check the cell penetrating property, we FAM conjugated the peptides and monitored their uptake by flow cytometry.

Compound | cell penetrating potential (uptake)
CC(C)C[C@H](NC(=O)[C@H](C)N)C(=O)N[C@@H](Cc1c[nH]c2ccccc12)C(=O)N1CCC[C@H]1C(=O)N1CCC[C@H]1C(=O)N[C@@H](CC(N)=O)C(=O)N[C@@H](CC(C)C)C(=O)N[C@@H](Cc1c[nH]cn1)C(=O)N[C@@H](C)C(=O)N[C@@H](Cc1c[nH]c2ccccc12)C(=O)N[C@H](C(=O)N1CCC[C@H]1C(=O)O)C(C)C [wild-type peptide] (H-ALWPPNLHAWVP-OH) | clearly indicated cell penetrating potential
LPPAPWNWAHVL [scrambled mutant] | clearly indicated cell penetrating potential
PVWAHLNPPWLA [reverse mutant] | clearly indicated cell penetrating potential
